In patent US20180244611A1, “Modulators of the Cystic Fibrosis Transmembrane Conductance Regulator Protein and Methods of Use” (AbbVie S.à.r.l., priority 2017, published 2018):

Tests used:
F508delCFTR [1] = target: T1, F508delCFTR (Homo sapiens, UniProt P13569, DEL508-508); assay: Cell Surface Expression-Horse Radish Peroxidase (CSE-HRP) assay, test compound without co-corrector; assay type: cell-based; conditions: for EC50: CSE-HRP assay, test compound without co-corrector; for Emax: maximum at any tested concentration, normalized to on-plate positive control, without co-corrector;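 as to Emax: percent of on-plate 2 µM positive control corrector response over DMSO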
T1 construct: expressed in transfected cells; host or cells: CFBE41o- human lung-derived epithelial cells (CFBE41o-F508delCFTR-HRP), doxycycline-inducible
T1 sequence (P13569 with tags, fused parts or gaps DEL508-508): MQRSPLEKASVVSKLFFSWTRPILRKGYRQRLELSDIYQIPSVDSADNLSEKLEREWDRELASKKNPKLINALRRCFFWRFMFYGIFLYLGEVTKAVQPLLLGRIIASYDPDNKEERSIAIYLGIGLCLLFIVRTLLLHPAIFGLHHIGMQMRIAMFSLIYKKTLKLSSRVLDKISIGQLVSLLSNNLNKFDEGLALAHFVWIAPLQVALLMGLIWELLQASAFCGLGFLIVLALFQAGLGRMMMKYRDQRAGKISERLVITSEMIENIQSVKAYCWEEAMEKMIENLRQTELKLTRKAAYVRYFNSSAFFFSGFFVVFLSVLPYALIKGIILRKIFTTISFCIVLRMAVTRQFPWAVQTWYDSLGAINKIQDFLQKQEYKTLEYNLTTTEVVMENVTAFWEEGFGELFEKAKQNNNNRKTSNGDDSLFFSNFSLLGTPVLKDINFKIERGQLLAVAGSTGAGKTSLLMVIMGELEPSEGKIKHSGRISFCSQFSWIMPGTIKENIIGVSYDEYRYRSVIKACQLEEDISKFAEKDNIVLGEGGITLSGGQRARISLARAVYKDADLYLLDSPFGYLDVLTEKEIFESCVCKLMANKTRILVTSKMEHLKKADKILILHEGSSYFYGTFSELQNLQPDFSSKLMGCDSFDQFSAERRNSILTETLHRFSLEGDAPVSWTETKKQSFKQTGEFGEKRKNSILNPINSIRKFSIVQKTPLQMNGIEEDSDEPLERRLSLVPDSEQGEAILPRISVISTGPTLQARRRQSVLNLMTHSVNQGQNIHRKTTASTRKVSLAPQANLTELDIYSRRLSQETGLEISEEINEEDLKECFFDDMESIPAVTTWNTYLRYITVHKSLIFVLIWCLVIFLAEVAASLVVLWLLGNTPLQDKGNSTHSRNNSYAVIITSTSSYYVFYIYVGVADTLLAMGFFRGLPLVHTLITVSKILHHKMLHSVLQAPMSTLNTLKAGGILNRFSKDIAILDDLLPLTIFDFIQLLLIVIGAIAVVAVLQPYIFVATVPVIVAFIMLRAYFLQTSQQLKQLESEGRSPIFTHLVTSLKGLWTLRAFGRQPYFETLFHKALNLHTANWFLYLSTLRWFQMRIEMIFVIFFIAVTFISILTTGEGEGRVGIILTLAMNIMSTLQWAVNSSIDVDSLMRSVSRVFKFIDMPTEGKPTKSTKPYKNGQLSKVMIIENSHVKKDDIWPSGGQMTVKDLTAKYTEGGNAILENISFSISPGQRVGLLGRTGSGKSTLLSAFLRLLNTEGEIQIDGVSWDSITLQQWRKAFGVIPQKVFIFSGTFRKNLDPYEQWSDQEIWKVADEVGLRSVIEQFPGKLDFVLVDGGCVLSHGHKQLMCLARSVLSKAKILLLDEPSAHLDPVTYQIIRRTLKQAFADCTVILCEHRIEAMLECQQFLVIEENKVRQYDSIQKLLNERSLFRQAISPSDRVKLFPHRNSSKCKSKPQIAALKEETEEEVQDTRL
Summary of the method: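 Compound without co-corrector was tested at eight 3-fold concentrations, top 20 μM, for 18-24 h at 33° C on doxycycline-induced (0.5 μg/mL, 72 h) CFBE41o- F508delCFTR-HRP cells. After DPBS washes, luminol luminescence gave % activity relative to on-plate positive control minus DMSO; EC50 came from triplicate-plate sigmoidal fitting.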

F508delCFTR [2] = target: T1, F508delCFTR; assay: Cell Surface Expression-Horse Radish Peroxidase (CSE-HRP) assay, test compound with co-corrector; assay type: cell-based; conditions: for EC50: CSE-HRP assay, test compound with 2 μM co-corrector; for Maximum % activity (with co-corrector): maximum at any tested concentration, normalized to on-plate positive control, with 2 μM co-corrector;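 as to Maximum % activity (with co-corrector): percent of 2 µM positive control corrector over DMSO; co-corrector is that same compound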
Summary of the method: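 Surface-expression read-out: luminol luminescence from an HRP tag in the fourth exofacial loop of F508delCFTR, in doxycycline-induced (0.5 μg/mL, 72 h) CFBE41o- cells. Compound plus 2 μM co-corrector added for 18-24 h at 33° C., 8-point 3-fold series up to 20 μM. EC50 from a sigmoidal fit with variable Hill slope, normalised to positive control, triplicate plates.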

Row | EC50 (F508delCFTR [1]) | Emax (F508delCFTR [1]) | EC50 (F508delCFTR [2]) | Maximum % activity (with co-corrector) (F508delCFTR [2]) | SMILES
1 | ≥ 10 µM | < 50% | ≥ 10 µM | + (<150) | Cc1ccccc1S(=O)(=O)NC(=O)C1CCc2c(-c3c[nH]nc3C)cccc21 (stereo not shown) [III-101]
2 | ≥ 10 µM | < 50% | ≥ 10 µM | + (<150) | Cc1ccccc1S(=O)(=O)NC(=O)C1CCc2c(-c3cnn(C)c3)cccc21 (stereo not shown) [III-102]
3 | ≥ 10 µM | < 50% | 3 to 10 µM | ++ (≥150 and <350) | Cc1ccc(-c2cccc3c2CCC3C(=O)NS(=O)(=O)c2ccccc2C)o1 (stereo not shown) [III-103]
4 | ≥ 10 µM | < 50% | ≥ 10 µM | + (<150) | Cc1ccccc1S(=O)(=O)NC(=O)C1CCc2c(-c3c(C)nn(C)c3C)cccc21 (stereo not shown) [III-105]
5 | ≥ 10 µM | < 50% | ≥ 10 µM | + (<150) | Cc1ccccc1S(=O)(=O)NC(=O)C1CCc2c(-c3ccnn3C)cccc21 (stereo not shown) [III-106]
6 | 3 to 10 µM | 50 to 150% | 3 to 10 µM | +++ (≥350) | COc1cccc2c1CCC[C@H]2C(=O)NS(=O)(=O)c1cccnc1N [III-107]
7 | 3 to 10 µM | 50 to 150% | 3 to 10 µM | ++ (≥150 and <350) | Cc1ccc2c(c1)CCC2(C)C(=O)NS(=O)(=O)c1cccc(N)n1 (stereo not shown) [III-108]
8 | ≥ 10 µM | < 50% | ≥ 10 µM | + (<150) | COc1cccc2c1CCC[C@H]2C(=O)NS(=O)(=O)c1cccc(N)n1 [III-109]
9 | ≥ 10 µM | < 50% | ≥ 10 µM | + (<150) | Nc1cccc(S(=O)(=O)NC(=O)C2CCCc3cccc(Cl)c32)n1 (stereo not shown) [III-110]
10 | ≥ 10 µM | < 50% | < 3 µM | ++ (≥150 and <350) | CCC1(C(=O)NS(=O)(=O)c2ccc(Cl)cc2Cl)CCc2c(Cl)cccc21 (stereo not shown) [III-113]
11 | 3 to 10 µM | < 50% | < 3 µM | ++ (≥150 and <350) | CCC1(C(=O)NS(=O)(=O)c2ccc(C)cc2C)CCc2c(Cl)cccc21 (stereo not shown) [III-114]
12 | < 3 µM | < 50% | < 3 µM | ++ (≥150 and <350) | CCC1(C(=O)NS(=O)(=O)c2c(F)cccc2F)CCc2c(Cl)cccc21 (stereo not shown) [III-115]
13 | ≥ 10 µM | < 50% | ≥ 10 µM | + (<150) | CCC1(C(=O)NS(=O)(=O)c2cc(Cl)ccc2Cl)CCc2c(Cl)cccc21 (stereo not shown) [III-116]
14 | 3 to 10 µM | < 50% | < 3 µM | ++ (≥150 and <350) | CCC1(C(=O)NS(=O)(=O)c2cccc(Cl)c2)CCc2c(Cl)cccc21 (stereo not shown) [III-117]
15 | ≥ 10 µM | < 50% | ≥ 10 µM | + (<150) | CCC1(C(=O)NS(=O)(=O)c2cc(C)ccc2Cl)CCc2c(Cl)cccc21 (stereo not shown) [III-118]
16 | ≥ 10 µM | < 50% | 3 to 10 µM | + (<150) | CCC1(C(=O)NS(=O)(=O)c2ccc(OC(F)(F)F)cc2)CCc2c(Cl)cccc21 (stereo not shown) [III-119]
17 | ≥ 10 µM | < 50% | ≥ 10 µM | + (<150) | CCC1(C(=O)NS(=O)(=O)c2ccccc2C#N)CCc2c(Cl)cccc21 (stereo not shown) [III-120]
18 | ≥ 10 µM | < 50% | ≥ 10 µM | + (<150) | CCC1(C(=O)NS(=O)(=O)c2c(OC)cccc2OC)CCc2c(Cl)cccc21 (stereo not shown) [III-121]
19 | ≥ 10 µM | < 50% | ≥ 10 µM | + (<150) | CCC1(C(=O)NS(=O)(=O)c2ccccc2C(F)(F)F)CCc2c(Cl)cccc21 (stereo not shown) [III-122]
20 | ≥ 10 µM | < 50% | 3 to 10 µM | ++ (≥150 and <350) | CCC1(C(=O)NS(=O)(=O)c2ccc3c(c2)OCCO3)CCc2c(Cl)cccc21 (stereo not shown) [III-123]
21 | ≥ 10 µM | < 50% | ≥ 10 µM | + (<150) | CCC1(C(=O)NS(=O)(=O)c2c(C)cccc2Cl)CCc2c(Cl)cccc21 (stereo not shown) [III-124]
22 | 3 to 10 µM | < 50% | 3 to 10 µM | ++ (≥150 and <350) | CCC1(C(=O)NS(=O)(=O)c2ccc(Cl)cc2)CCc2c(Cl)cccc21 (stereo not shown) [III-125]

Row | EC50 (F508delCFTR [1]) | Emax (F508delCFTR [1]) | EC50 (F508delCFTR [2]) | Maximum % activity (with co-corrector) (F508delCFTR [2]) | SMILES
23 | ≥ 10 µM | < 50% | ≥ 10 µM | + (<150) | CCC1(C(=O)NS(=O)(=O)c2c(C)cccc2C(F)(F)F)CCc2c(Cl)cccc21 (stereo not shown) [III-126]
24 | ≥ 10 µM | < 50% | ≥ 10 µM | + (<150) | CCC1(C(=O)NS(=O)(=O)c2cccc(F)c2C#N)CCc2c(Cl)cccc21 (stereo not shown) [III-127]
25 | 3 to 10 µM | < 50% | 3 to 10 µM | ++ (≥150 and <350) | CCC1(C(=O)NS(=O)(=O)C2(C)CC2)CCc2c(Cl)cccc21 (stereo not shown) [III-128]
26 | ≥ 10 µM | < 50% | 3 to 10 µM | ++ (≥150 and <350) | CCC1(C(=O)NS(=O)(=O)c2ccc(-c3ccccc3)cc2)CCc2c(Cl)cccc21 (stereo not shown) [III-129]
27 | ≥ 10 µM | < 50% | ≥ 10 µM | + (<150) | CCC1(C(=O)NS(=O)(=O)c2ccc(CN(C)C)cc2)CCc2c(Cl)cccc21 (stereo not shown) [III-130]
28 | ≥ 10 µM | < 50% | ≥ 10 µM | + (<150) | CCC1(C(=O)NS(=O)(=O)c2c(C)nn(C)c2Cl)CCc2c(Cl)cccc21 (stereo not shown) [III-131]
29 | ≥ 10 µM | < 50% | 3 to 10 µM | ++ (≥150 and <350) | CCC1(C(=O)NS(=O)(=O)c2cccnc2Cl)CCc2c(Cl)cccc21 (stereo not shown) [III-132]
30 | ≥ 10 µM | < 50% | 3 to 10 µM | ++ (≥150 and <350) | CCC1(C(=O)NS(=O)(=O)c2ccc3ncccc3c2)CCc2c(Cl)cccc21 (stereo not shown) [III-133]
31 | ≥ 10 µM | < 50% | ≥ 10 µM | + (<150) | CCC1(C(=O)NS(=O)(=O)c2c(Cl)nc3sccn23)CCc2c(Cl)cccc21 (stereo not shown) [III-134]
32 | ≥ 10 µM | < 50% | ≥ 10 µM | + (<150) | CCC1(C(=O)NS(=O)(=O)c2ncccc2C(=O)N(C)C)CCc2c(Cl)cccc21 (stereo not shown) [III-135]
33 | ≥ 10 µM | < 50% | ≥ 10 µM | + (<150) | CCC1(C(=O)NS(=O)(=O)C2CCCCC2)CCc2c(Cl)cccc21 (stereo not shown) [III-136]
34 | ≥ 10 µM | < 50% | ≥ 10 µM | + (<150) | CCC1(C(=O)NS(=O)(=O)c2cnccc2N2CCN(C(C)C)CC2)CCc2c(Cl)cccc21 (stereo not shown) [III-137]
35 | 3 to 10 µM | < 50% | 3 to 10 µM | ++ (≥150 and <350) | CCC1(C(=O)NS(=O)(=O)c2ccccc2OCCN2CCCCC2)CCc2c(Cl)cccc21 (stereo not shown) [III-138]
36 | < 3 µM | < 50% | < 3 µM | ++ (≥150 and <350) | CCC1(C(=O)NS(=O)(=O)c2ccc(C)cc2)CCc2c(Cl)cccc21 (stereo not shown) [III-139]
37 | ≥ 10 µM | < 50% | ≥ 10 µM | + (<150) | CCC1(C(=O)NS(=O)(=O)Cc2ccccc2)CCc2c(Cl)cccc21 (stereo not shown) [III-140]
38 | ≥ 10 µM | < 50% | ≥ 10 µM | + (<150) | CCC1(C(=O)NS(=O)(=O)c2cccc3c2C(=O)N(C)C3=O)CCc2c(Cl)cccc21 (stereo not shown) [III-141]
39 | 3 to 10 µM | < 50% | 3 to 10 µM | ++ (≥150 and <350) | CCC1(C(=O)NS(=O)(=O)c2ccc(OC)cc2)CCc2c(Cl)cccc21 (stereo not shown) [III-142]
40 | ≥ 10 µM | < 50% | ≥ 10 µM | + (<150) | CCC1(C(=O)NS(=O)(=O)c2ccc(Oc3ccccc3)cc2)CCc2c(Cl)cccc21 (stereo not shown) [III-143]
41 | ≥ 10 µM | < 50% | 3 to 10 µM | ++ (≥150 and <350) | CCC1(C(=O)NS(=O)(=O)c2cccc(C#N)c2)CCc2c(Cl)cccc21 (stereo not shown) [III-144]
42 | 3 to 10 µM | < 50% | 3 to 10 µM | ++ (≥150 and <350) | CCC1(C(=O)NS(=O)(=O)c2cc[nH]n2)CCc2c(Cl)cccc21 (stereo not shown) [III-145]
43 | 3 to 10 µM | < 50% | 3 to 10 µM | ++ (≥150 and <350) | O=C(NS(=O)(=O)c1cccc2ccccc12)C1(Cc2ccccn2)CCc2c(Cl)cccc21 (stereo not shown) [III-147]
